This note sets out measurements from patent publication EP0036502B1, “2-Alkyl-5-hydroxy-1,4-naphthoquinones, process for their manufacture and pharmaceutical preparations containing these compounds” (ZYMA GMBH, priority 1980, dated 1981).

The test has as its system Prostaglandinsynthetase. Briefly: Prostaglandin synthetase inhibition in vitro (method of Baumann et al.). Format: biochemical. Conditions: concentration 10-^3 Mol/I, 1000 µM. From the text:
Die Erfindung betrifft somit weiterhin die Verwendung der erfindungsgemäßen Verbindungen der allgemeinen Formel I zur Behandlung und Bekämpfung von Entzündungen sowie von allergischen, insbesondere anaphylaktischen Reaktionen. So beträgt beispieslweise die durch 2-Äthyl-5-hydroxy-1,4-naphthochinon hervorgerufene Prostaglandinsynthetase-Hemmung in vitro bei einer Konzentration von 10-^3 Mol/I 87%. Die Bestimmung der Prostaglandinsynthetase-Hemmung wurde nach J. Baumann, F. v. Bruchhausen u. G. Wurm, Naunym-Schmiedeberg's Arch. Pharmacol. 307, 73 (1979) und j. Baumann, G. Wurm u. F. v. Bruchhausen, Arch. Pharm. (Weinheim) 313,330 (1980) durchgeführt.

The molecule `CCC1=CC(=O)c2c(O)cccc2C1=O` [2-Äthyl-5-hydroxy-1,4-naphthochinon] showed a Prostaglandinsynthetase-Hemmung in vitro of 87%.
